Assay results taken from paper PMC6230509 (Neuropharmacology, 2018).

Assays:
[1] = target: T1, 5-HT1A (Homo sapiens, UniProt P08908); experiment: NIMH PDSP radioligand competition binding, 5-HT1A
T1 sequence (P08908 1-422): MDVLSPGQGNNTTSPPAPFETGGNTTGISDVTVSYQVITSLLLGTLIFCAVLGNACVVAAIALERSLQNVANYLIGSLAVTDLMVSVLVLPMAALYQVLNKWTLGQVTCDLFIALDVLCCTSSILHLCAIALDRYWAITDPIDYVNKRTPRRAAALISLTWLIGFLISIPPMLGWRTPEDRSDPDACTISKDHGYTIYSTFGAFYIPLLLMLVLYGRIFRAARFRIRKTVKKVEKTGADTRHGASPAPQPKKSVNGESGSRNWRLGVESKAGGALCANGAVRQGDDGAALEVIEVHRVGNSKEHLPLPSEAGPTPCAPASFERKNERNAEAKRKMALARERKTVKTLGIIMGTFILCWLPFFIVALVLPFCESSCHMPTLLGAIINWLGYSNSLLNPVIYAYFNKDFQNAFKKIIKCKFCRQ

[2] = target: 5-HT1B (Homo sapiens, UniProt P28222); experiment: NIMH PDSP radioligand competition binding, 5-HT1B
[3] = target: 5-HT6 (Homo sapiens, UniProt P50406); experiment: NIMH PDSP radioligand competition binding, 5-HT6
[4] = target: T2, α1D (Homo sapiens, UniProt P25100); experiment: NIMH PDSP radioligand competition binding, α1D
T2 sequence (P25100 1-572): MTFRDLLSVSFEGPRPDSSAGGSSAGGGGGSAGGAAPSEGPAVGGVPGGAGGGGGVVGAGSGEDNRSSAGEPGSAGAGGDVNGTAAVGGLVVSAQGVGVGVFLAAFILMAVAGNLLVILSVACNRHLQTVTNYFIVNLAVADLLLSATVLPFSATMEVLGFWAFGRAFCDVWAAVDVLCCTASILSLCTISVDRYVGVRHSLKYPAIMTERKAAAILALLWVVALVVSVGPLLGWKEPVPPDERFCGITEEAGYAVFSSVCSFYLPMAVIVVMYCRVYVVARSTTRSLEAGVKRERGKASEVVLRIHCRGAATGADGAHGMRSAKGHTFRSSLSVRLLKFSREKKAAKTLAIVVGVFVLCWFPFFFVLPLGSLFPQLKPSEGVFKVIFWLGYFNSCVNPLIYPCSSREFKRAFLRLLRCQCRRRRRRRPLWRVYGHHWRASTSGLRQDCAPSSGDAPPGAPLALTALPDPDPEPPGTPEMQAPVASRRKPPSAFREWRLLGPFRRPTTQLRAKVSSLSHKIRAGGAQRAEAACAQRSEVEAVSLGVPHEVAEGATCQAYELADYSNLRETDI

Chain of 5-HT1B (P28222 whole entry): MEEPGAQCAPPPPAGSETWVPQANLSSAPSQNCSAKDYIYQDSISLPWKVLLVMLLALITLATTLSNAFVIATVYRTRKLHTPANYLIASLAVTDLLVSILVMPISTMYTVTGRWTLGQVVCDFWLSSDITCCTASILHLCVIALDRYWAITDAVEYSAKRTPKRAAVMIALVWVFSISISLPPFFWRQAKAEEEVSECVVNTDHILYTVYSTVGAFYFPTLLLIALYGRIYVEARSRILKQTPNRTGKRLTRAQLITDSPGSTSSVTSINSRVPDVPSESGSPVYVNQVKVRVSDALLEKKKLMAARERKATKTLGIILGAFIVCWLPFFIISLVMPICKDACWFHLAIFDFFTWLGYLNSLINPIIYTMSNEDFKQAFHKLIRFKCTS
Chain of 5-HT6 (P50406 whole entry): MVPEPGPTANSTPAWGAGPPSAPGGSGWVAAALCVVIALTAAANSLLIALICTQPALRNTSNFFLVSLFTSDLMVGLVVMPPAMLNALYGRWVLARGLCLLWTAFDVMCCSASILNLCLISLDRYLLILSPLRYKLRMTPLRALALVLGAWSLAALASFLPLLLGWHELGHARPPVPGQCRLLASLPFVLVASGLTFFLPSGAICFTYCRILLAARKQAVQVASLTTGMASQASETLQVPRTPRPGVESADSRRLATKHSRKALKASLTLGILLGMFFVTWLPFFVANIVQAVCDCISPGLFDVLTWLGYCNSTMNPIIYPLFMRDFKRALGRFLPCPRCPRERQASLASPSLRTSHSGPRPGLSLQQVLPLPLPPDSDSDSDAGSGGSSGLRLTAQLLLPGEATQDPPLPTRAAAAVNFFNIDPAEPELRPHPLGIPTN

| SMILES | Ki [1] [nM] | Ki [2] [nM] | Ki [3] [nM] | Ki [4] [nM] |
| --- | --- | --- | --- | --- |
| C=CCN(CC=C)CCc1c(-c2ccccc2)[nH]c2ccccc12 [2-Ph-DALT, 2-phenyl-N,N-diallyltryptamine] | 402 | 273 | 68 | 243 |
| C=CCN(CC=C)CCc1c[nH]c2cccc(OC(C)=O)c12 [4-AcO-DALT, 4-acetoxy-N,N-diallyltryptamine] | 383 | > 10000 | 1790 | > 10000 |
| C=CCN(CC=C)CCc1c[nH]c2cccc(O)c12 [4-HO-DALT, 4-hydroxy-N,N-diallyltryptamine] | 319 | 2490 | 213 | > 10000 |
| C=CCN(CC=C)CCc1c(C)[nH]c2ccc(F)cc12 [5-F-2-Me-DALT, 5-fluoro-2-methyl-N,N-diallyltryptamine] | 318 | 2010 | 168 | > 10000 |
| C=CCN(CC=C)CCc1c(C)[nH]c2ccc(OC)cc12 [5-MeO-2-Me-DALT, 5-methoxy-2-methyl-N,N-diallyltryptamine] | 267 | 2270 | 206 | 2410 |
| C=CCN(CC=C)CCc1c[nH]c2c(CC)cccc12 [7-Et-DALT, 7-ethyl-N,N-diallyltryptamine] | 1010 | > 10000 | > 10000 | > 10000 |
